Species: Rattus norvegicus
Test: Open TG-GATES - Regimen: Single
Type: toxicity, organism-based, Sprague-Dawley
Parameters: regimen Single, gender Male, age 6 weeks
Settings: in vivo, po, route gavage; for gamma-GTP / ALP / ALT / AST / BUN / CRE / Ca / DBIL / GLC / IP / K / LDH / Na / PL / RALB / TBIL / TC / TG / TP: tissue Plasma; for APTT / Bas / Eos / Fbg / Hb / Ht / Lym / MCH / MCHC / MCV / Mono / Neu / PT / Plat / RBC / Ret / WBC: tissue Blood; for KIDNEY_L / KIDNEY_R / KIDNEY_TOTAL: tissue Kidney; for LIVER: tissue Liver

CSc1ccc2c(c1)N(CCC1CCCCN1C)c1ccccc1S2 (stereo not drawn) [THIORIDAZINE]
gamma-GTP (0 mg/kg, 24 h, dose level Control): 1.2 IU/L | TERMINAL_BW (10 mg/kg, 3 h, dose level Low): 216.5 g | APTT (10 mg/kg, 3 h, dose level Low): 16.2 s | Bas (10 mg/kg, 3 h, dose level Low): 0% | Eos (10 mg/kg, 3 h, dose level Low): 0.6% | Fbg (10 mg/kg, 3 h, dose level Low): 201 mg/dL | Hb (10 mg/kg, 3 h, dose level Low): 12.6 g/dL | Ht (10 mg/kg, 3 h, dose level Low): 37.5% | Lym (10 mg/kg, 3 h, dose level Low): 77% | MCH (10 mg/kg, 3 h, dose level Low): 22.5 pg | MCHC (10 mg/kg, 3 h, dose level Low): 33.6% | MCV (10 mg/kg, 3 h, dose level Low): 67.1 fL | Mono (10 mg/kg, 3 h, dose level Low): 9.8% | Neu (10 mg/kg, 3 h, dose level Low): 13% | PT (10 mg/kg, 3 h, dose level Low): 12.2 s | Plat (10 mg/kg, 3 h, dose level Low): 94.9 x10_4/uL | RBC (10 mg/kg, 3 h, dose level Low): 560.4 x10_4/ul | Ret (10 mg/kg, 3 h, dose level Low): 8% | WBC (10 mg/kg, 3 h, dose level Low): 87.7 x10_2/uL | KIDNEY_L (10 mg/kg, 3 h, dose level Low): 1 g | KIDNEY_R (10 mg/kg, 3 h, dose level Low): 1 g | KIDNEY_TOTAL (10 mg/kg, 3 h, dose level Low): 2 g | LIVER (10 mg/kg, 3 h, dose level Low): 10.5 g | ALP (10 mg/kg, 3 h, dose level Low): 973.8 IU/L | ALT (10 mg/kg, 3 h, dose level Low): 36.8 IU/L | AST (10 mg/kg, 3 h, dose level Low): 65.4 IU/L | BUN (10 mg/kg, 3 h, dose level Low): 13.2 mg/dL | CRE (10 mg/kg, 3 h, dose level Low): 0.5 mg/dL | Ca (10 mg/kg, 3 h, dose level Low): 11.2 mg/dL | DBIL (10 mg/kg, 3 h, dose level Low): 0.016 mg/dL | GLC (10 mg/kg, 3 h, dose level Low): 205.6 mg/dL | IP (10 mg/kg, 3 h, dose level Low): 10.7 mg/dL | K (10 mg/kg, 3 h, dose level Low): 5.1 meq/L | LDH (10 mg/kg, 3 h, dose level Low): 95 IU/L | Na (10 mg/kg, 3 h, dose level Low): 139.4 meq/L | PL (10 mg/kg, 3 h, dose level Low): 140.2 mg/dL | RALB (10 mg/kg, 3 h, dose level Low): 3.7 g/dL | TBIL (10 mg/kg, 3 h, dose level Low): 0.3 mg/dL | TC (10 mg/kg, 3 h, dose level Low): 76.8 mg/dL | TG (10 mg/kg, 3 h, dose level Low): 69.2 mg/dL | TP (10 mg/kg, 3 h, dose level Low): 5.3 g/dL | gamma-GTP (10 mg/kg, 3 h, dose level Low): 0.8 IU/L | TERMINAL_BW (10 mg/kg, 6 h, dose level Low): 214.5 g | APTT (10 mg/kg, 6 h, dose level Low): 16.8 s | Bas (10 mg/kg, 6 h, dose level Low): 0% | Eos (10 mg/kg, 6 h, dose level Low): 1% | Fbg (10 mg/kg, 6 h, dose level Low): 210.6 mg/dL | Hb (10 mg/kg, 6 h, dose level Low): 13.1 g/dL | Ht (10 mg/kg, 6 h, dose level Low): 39% | Lym (10 mg/kg, 6 h, dose level Low): 78.8% | MCH (10 mg/kg, 6 h, dose level Low): 22 pg | MCHC (10 mg/kg, 6 h, dose level Low): 33.5% | MCV (10 mg/kg, 6 h, dose level Low): 65.8 fL | Mono (10 mg/kg, 6 h, dose level Low): 8.6% | Neu (10 mg/kg, 6 h, dose level Low): 12% | PT (10 mg/kg, 6 h, dose level Low): 12.2 s | Plat (10 mg/kg, 6 h, dose level Low): 109 x10_4/uL | RBC (10 mg/kg, 6 h, dose level Low): 593 x10_4/ul | Ret (10 mg/kg, 6 h, dose level Low): 8.6% | WBC (10 mg/kg, 6 h, dose level Low): 129.7 x10_2/uL | KIDNEY_L (10 mg/kg, 6 h, dose level Low): 1 g | KIDNEY_R (10 mg/kg, 6 h, dose level Low): 1 g | KIDNEY_TOTAL (10 mg/kg, 6 h, dose level Low): 2 g | ALP (10 mg/kg, 6 h, dose level Low): 779.8 IU/L | ALT (10 mg/kg, 6 h, dose level Low): 27.6 IU/L | AST (10 mg/kg, 6 h, dose level Low): 62.4 IU/L | BUN (10 mg/kg, 6 h, dose level Low): 11.8 mg/dL | CRE (10 mg/kg, 6 h, dose level Low): 0.5 mg/dL | Ca (10 mg/kg, 6 h, dose level Low): 10.8 mg/dL | DBIL (10 mg/kg, 6 h, dose level Low): 0.022 mg/dL | GLC (10 mg/kg, 6 h, dose level Low): 192.4 mg/dL | IP (10 mg/kg, 6 h, dose level Low): 10.2 mg/dL | K (10 mg/kg, 6 h, dose level Low): 4.9 meq/L | LDH (10 mg/kg, 6 h, dose level Low): 94 IU/L | Na (10 mg/kg, 6 h, dose level Low): 138.8 meq/L | PL (10 mg/kg, 6 h, dose level Low): 136.4 mg/dL | RALB (10 mg/kg, 6 h, dose level Low): 3.7 g/dL | TBIL (10 mg/kg, 6 h, dose level Low): 0.4 mg/dL | TC (10 mg/kg, 6 h, dose level Low): 71.6 mg/dL | TG (10 mg/kg, 6 h, dose level Low): 60.2 mg/dL | TP (10 mg/kg, 6 h, dose level Low): 5.4 g/dL | gamma-GTP (10 mg/kg, 6 h, dose level Low): 3.2 IU/L | TERMINAL_BW (10 mg/kg, 9 h, dose level Low): 213.3 g | APTT (10 mg/kg, 9 h, dose level Low): 16.6 s | Bas (10 mg/kg, 9 h, dose level Low): 0% | Eos (10 mg/kg, 9 h, dose level Low): 1% | Fbg (10 mg/kg, 9 h, dose level Low): 209.6 mg/dL | Hb (10 mg/kg, 9 h, dose level Low): 12.7 g/dL | Ht (10 mg/kg, 9 h, dose level Low): 38.5% | Lym (10 mg/kg, 9 h, dose level Low): 72.4% | MCH (10 mg/kg, 9 h, dose level Low): 21.3 pg | MCHC (10 mg/kg, 9 h, dose level Low): 33.1% | MCV (10 mg/kg, 9 h, dose level Low): 64.5 fL | Mono (10 mg/kg, 9 h, dose level Low): 6.4% | Neu (10 mg/kg, 9 h, dose level Low): 20.6% | PT (10 mg/kg, 9 h, dose level Low): 12.3 s | Plat (10 mg/kg, 9 h, dose level Low): 105.4 x10_4/uL | RBC (10 mg/kg, 9 h, dose level Low): 598.2 x10_4/ul | Ret (10 mg/kg, 9 h, dose level Low): 8.1% | WBC (10 mg/kg, 9 h, dose level Low): 80.7 x10_2/uL | KIDNEY_L (10 mg/kg, 9 h, dose level Low): 1 g | KIDNEY_R (10 mg/kg, 9 h, dose level Low): 1 g | KIDNEY_TOTAL (10 mg/kg, 9 h, dose level Low): 2.1 g | LIVER (10 mg/kg, 9 h, dose level Low): 9.6 g | ALP (10 mg/kg, 9 h, dose level Low): 749.8 IU/L | ALT (10 mg/kg, 9 h, dose level Low): 29.4 IU/L | AST (10 mg/kg, 9 h, dose level Low): 64.4 IU/L | BUN (10 mg/kg, 9 h, dose level Low): 11.2 mg/dL | CRE (10 mg/kg, 9 h, dose level Low): 0.6 mg/dL | Ca (10 mg/kg, 9 h, dose level Low): 10.8 mg/dL | DBIL (10 mg/kg, 9 h, dose level Low): 0.034 mg/dL | GLC (10 mg/kg, 9 h, dose level Low): 195.4 mg/dL | IP (10 mg/kg, 9 h, dose level Low): 10.7 mg/dL | K (10 mg/kg, 9 h, dose level Low): 5.1 meq/L | LDH (10 mg/kg, 9 h, dose level Low): 66.8 IU/L | Na (10 mg/kg, 9 h, dose level Low): 140 meq/L | PL (10 mg/kg, 9 h, dose level Low): 142.2 mg/dL | RALB (10 mg/kg, 9 h, dose level Low): 3.8 g/dL | TBIL (10 mg/kg, 9 h, dose level Low): 0.4 mg/dL | TC (10 mg/kg, 9 h, dose level Low): 77.4 mg/dL | TG (10 mg/kg, 9 h, dose level Low): 31.4 mg/dL | TP (10 mg/kg, 9 h, dose level Low): 5.3 g/dL | gamma-GTP (10 mg/kg, 9 h, dose level Low): 1.6 IU/L | TERMINAL_BW (10 mg/kg, 24 h, dose level Low): 232.6 g | APTT (10 mg/kg, 24 h, dose level Low): 16.5 s | Bas (10 mg/kg, 24 h, dose level Low): 0% | Eos (10 mg/kg, 24 h, dose level Low): 1% | Fbg (10 mg/kg, 24 h, dose level Low): 215.4 mg/dL | Hb (10 mg/kg, 24 h, dose level Low): 13 g/dL | Ht (10 mg/kg, 24 h, dose level Low): 39.1% | Lym (10 mg/kg, 24 h, dose level Low): 80.4% | MCH (10 mg/kg, 24 h, dose level Low): 21.8 pg | MCHC (10 mg/kg, 24 h, dose level Low): 33.3% | MCV (10 mg/kg, 24 h, dose level Low): 65.3 fL | Mono (10 mg/kg, 24 h, dose level Low): 6.6% | Neu (10 mg/kg, 24 h, dose level Low): 11.8% | PT (10 mg/kg, 24 h, dose level Low): 12.2 s | RBC (10 mg/kg, 24 h, dose level Low): 599.2 x10_4/ul | Ret (10 mg/kg, 24 h, dose level Low): 8.2% | WBC (10 mg/kg, 24 h, dose level Low): 132.3 x10_2/uL | KIDNEY_L (10 mg/kg, 24 h, dose level Low): 1 g | KIDNEY_R (10 mg/kg, 24 h, dose level Low): 1 g | KIDNEY_TOTAL (10 mg/kg, 24 h, dose level Low): 2 g | LIVER (10 mg/kg, 24 h, dose level Low): 11.9 g | ALP (10 mg/kg, 24 h, dose level Low): 799.2 IU/L | ALT (10 mg/kg, 24 h, dose level Low): 39.6 IU/L | AST (10 mg/kg, 24 h, dose level Low): 68.6 IU/L | BUN (10 mg/kg, 24 h, dose level Low): 19 mg/dL | CRE (10 mg/kg, 24 h, dose level Low): 0.5 mg/dL | Ca (10 mg/kg, 24 h, dose level Low): 11.3 mg/dL | DBIL (10 mg/kg, 24 h, dose level Low): 0.074 mg/dL | GLC (10 mg/kg, 24 h, dose level Low): 193.6 mg/dL | IP (10 mg/kg, 24 h, dose level Low): 8.7 mg/dL | K (10 mg/kg, 24 h, dose level Low): 4.9 meq/L | LDH (10 mg/kg, 24 h, dose level Low): 77.4 IU/L | Na (10 mg/kg, 24 h, dose level Low): 138.2 meq/L | PL (10 mg/kg, 24 h, dose level Low): 154.8 mg/dL | RALB (10 mg/kg, 24 h, dose level Low): 4 g/dL | TBIL (10 mg/kg, 24 h, dose level Low): 0.4 mg/dL | TC (10 mg/kg, 24 h, dose level Low): 81 mg/dL | TG (10 mg/kg, 24 h, dose level Low): 116.8 mg/dL | TP (10 mg/kg, 24 h, dose level Low): 5.8 g/dL | gamma-GTP (10 mg/kg, 24 h, dose level Low): 1.4 IU/L

Reference: ChEMBL document CHEMBL3885861, “Open TG-GATES”
